Data published in patent EP0139005A1, “ANTITUMOR COMPOSITION, METHOD FOR TREATING TUMOR, AND USE OF THE COMPOSITION FOR TREATING TUMOR” (Yoshitomi Pharmaceutical Industries, Ltd., priority 1982, dated 1984).

Columns and labels:
Ehrlich carcinoma [1] = assay: Ehrlich carcinoma implanted intraperitoneally, survival (Experimental Example 6); format: in vivo, male ICR mice; settings: once daily for seven days
Method: A plurality of groups each consisting of six male ICR mice (7-8 weeks old) were implanted intraperitoneally with 2 x 10^6 Ehrlich carcinoma. After 24 hours, Y-6430 dissolved in physiological saline was administered intraperitoneally once daily for seven days.

Ehrlich carcinoma [2] = assay: Ehrlich carcinoma implanted subcutaneously, tumor weight (Experimental Example 7); format: in vivo, male ICR mice; settings: once daily for seven days, 24 hours after final administration, control 399.5 mg
Method: A plurality of groups each consisting of six male ICR mice (7-8 weeks old) were respectively implanted subcutaneously with […] Ehrlich carcinoma. After 24 hours, Y-6430 dissolved in physiological saline was administered intraperitoneally once daily for seven days. 24 hours after the final administration, the test animals were killed by ether anesthesia, and the carcinoma of each test animal was exercised and weighed.

IMC carcinoma = IMC carcinoma implanted intraperitoneally, survival (Experimental Example 1); format: in vivo, female CDF1 mice; settings: for 30-day Survivors / Average Survival Time / Life-Prolongation Ratio (%): once daily for seven days
Method: A plurality of groups each consisting of five heads of female CDF1 mice (7-8 weeks old) were implanted intraperitoneally with 10^6 cells of IMC carcinoma. After 24 hours, Y-6430 was respectively administered once daily for seven days, and average survival times, life-prolongation ratios and 30-day survivors were calculated.
(§1) The life-prolongation ratio was calculated by the following scheme (the same scheme is applied to the subsequent experimental examples).
(§2) Life-prolongation Ratio [formula] T : Average survival days of the treated group
(§3) C : Average survival days of the control group
(§4) Animals survived over 30 days or longer were estimated as 30-day survivors, and the cases where T/C equals to or greater than 125% were regarded as effective.

L1210 leukemia [3] = assay: L1210 leukemia implanted intraperitoneally, i.p. treatment, survival (Experimental Example 3); format: in vivo, female CDF1 mice; settings: for Average Survival Time / Life-Prolongation Ratio (%): once daily for seven days
Method: as §1, §2, §3, §4
A plurality of groups each consisting of five heads of female CDF1 mice (8 weeks old) were respectively implanted intraperitoneally with 10 cells of L1210 leukemia. After the next day of the implantation, Y-6430, ESCC and ESCC ethyl ester (hereinafter referred to ESCC-Et) in physiological saline were respectively administered once daily for seven days intraperitoneally, and the average survival days and life-prolongation ratios in each group were calculated.
(§5) All the test animals died of tumor within 30 days.

AH272 hepatoma = assay: AH272 hepatoma, survival (Experimental Example 8); format: in vivo, male Donryu rats; settings: once daily from third to sixth day, control 7.9 days
Method: A plurality of groups each consisting of six male Donryu rats (7-8 weeks old) were implanted with 2 x 10^6 cells of AH272 hepatoma. After the implantation, Y-6430 dissolved in physiological saline was administered intraperitoneally once daily within the period from the third to sixth day, and the average survival days were calculated, the result being shown in Table 9.
All the test animals were dead within 30 days.

AH44 hepatoma = AH44 hepatoma implanted intraperitoneally, single dose, survival (Experimental Example 5); format: in vivo, male Donryu rats; settings: once, three days after implantation
Description: A plurality of groups each consisting of six male Donryu rats (7-8 weeks old) were respectively implanted intraperitoneally with 10^6 cells of AH44 hepatoma. Three days after the implantation, each test animal was once administered orally or intraperitoneally with Y-6430.

sarcoma 180 = assay: Sarcoma 180 implanted intraperitoneally, survival (Experimental Example 9); format: in vivo, male ICR mice; settings: once daily for seven days
Method: A plurality of groups each consisting of 12 male ICR mice (6-8 weeks old) were implanted intraperitoneally with 2 x 10^6 cells of sarcoma 180. After the next day to the implantation, Y-6430 was administered intraperitoneally or subcutaneously once daily for seven days.

L1210 leukemia [4] = assay: L1210 leukemia implanted intraperitoneally, oral or subcutaneous treatment, survival (Experimental Example 4); format: in vivo, female CDF1 mice; settings: for Average Survival Time / Life-Prolongation Ratio (%): once daily for seven days
Method: as §1, §2, §3, §4
A plurality of groups each consisting of five female CDF1 mice (7-8 weeks old) were respectively implanted intraperitoneally with 10 cells of L1210 leukemia. After the next day of the implantation, the test animals were administered orally or subcutaneously once daily for seven days with Y-6430 or ESCC dissolved in physiological saline, and the average survival days and life-prolongation ratios in each group were calculated.
as §5

CCOC(=O)[C@@H](N)CSC(=O)NC.Cl [Y-6430, S-methylcarbamoyl-L-cysteine ethyl ester hydrochloride]
30-day Survivors (Ehrlich carcinoma [1]; 50 mg/kg/day i.p.): 0/12
Average Survival Time (Ehrlich carcinoma [1]; 50 mg/kg/day i.p.): 18.6 days
30-day Survivors (Ehrlich carcinoma [1]; 100 mg/kg/day i.p.): 6/12
Average Survival Time (Ehrlich carcinoma [1]; 100 mg/kg/day i.p.): 26.0 days
Average Tumor Weight (Ehrlich carcinoma [2]; 50 mg/kg/day i.p.): 194.0 mg
Average Tumor Weight (Ehrlich carcinoma [2]; 100 mg/kg/day i.p.): 146.6 mg
30-day Survivors (IMC carcinoma; 100 mg/kg/day i.p.): 0/5
Average Survival Time (IMC carcinoma; 100 mg/kg/day i.p.): 24.0 days
Life-Prolongation Ratio (%) (IMC carcinoma; 100 mg/kg/day i.p.): 218%
30-day Survivors (IMC carcinoma; 100 mg/kg/day p.o.): 0/5
Average Survival Time (IMC carcinoma; 100 mg/kg/day p.o.): 12.6 days
Life-Prolongation Ratio (%) (IMC carcinoma; 100 mg/kg/day p.o.): 115%
30-day Survivors (IMC carcinoma; 250 mg/kg/day i.p.): 1/5
Average Survival Time (IMC carcinoma; 250 mg/kg/day i.p.): 25.0 days
Life-Prolongation Ratio (%) (IMC carcinoma; 250 mg/kg/day i.p.): 227%
30-day Survivors (IMC carcinoma; 250 mg/kg/day p.o.): 0/5
Average Survival Time (IMC carcinoma; 250 mg/kg/day p.o.): 18.2 days
Life-Prolongation Ratio (%) (IMC carcinoma; 250 mg/kg/day p.o.): 165%
30-day Survivors (IMC carcinoma; 500 mg/kg/day i.p.): 1/5
Average Survival Time (IMC carcinoma; 500 mg/kg/day i.p.): 27.0 days
Life-Prolongation Ratio (%) (IMC carcinoma; 500 mg/kg/day i.p.): 245%
30-day Survivors (IMC carcinoma; 500 mg/kg/day p.o.): 0/5
Average Survival Time (IMC carcinoma; 500 mg/kg/day p.o.): 21.0 days
Life-Prolongation Ratio (%) (IMC carcinoma; 500 mg/kg/day p.o.): 191%
30-day Survivors (IMC carcinoma; 1,000 mg/kg/day p.o.): 0/5
Average Survival Time (IMC carcinoma; 1,000 mg/kg/day p.o.): 23.0 days
Life-Prolongation Ratio (%) (IMC carcinoma; 1,000 mg/kg/day p.o.): 209%
effectiveness against IMC carcinoma (IMC carcinoma; administered orally or intraperitoneally, T/C equal to or greater than 125% regarded as effective): effective
Average Survival Time (L1210 leukemia [3]; 50 mg/kg/day i.p.): 8.4 days
Life-Prolongation Ratio (%) (L1210 leukemia [3]; 50 mg/kg/day i.p.): 105%
Average Survival Time (L1210 leukemia [3]; 100 mg/kg/day i.p.): 9.4 days
Life-Prolongation Ratio (%) (L1210 leukemia [3]; 100 mg/kg/day i.p.): 118%
Average Survival Time (L1210 leukemia [3]; 250 mg/kg/day i.p.): 9.8 days
Life-Prolongation Ratio (%) (L1210 leukemia [3]; 250 mg/kg/day i.p.): 123%
Average Survival Time (L1210 leukemia [3]; 500 mg/kg/day i.p.): 12.4 days
Life-Prolongation Ratio (%) (L1210 leukemia [3]; 500 mg/kg/day i.p.): 155%
effectiveness against L1210 leukemia (L1210 leukemia [3]; group administered with 500 mg/kg i.p.): effective
Average Survival Time (AH272 hepatoma; 100 mg/kg/day i.p.): 10.5 days
Average Survival Time (AH272 hepatoma; 250 mg/kg/day i.p.): 15.0 days
30-day Survivors (AH44 hepatoma; 500 mg/kg p.o.): 0/6
Average Survival Time (AH44 hepatoma; 500 mg/kg p.o.): 11.2 days
30-day Survivors (AH44 hepatoma; 1,000 mg/kg i.p.): 1/6
Average Survival Time (AH44 hepatoma; 1,000 mg/kg i.p.): 14.7 days
30-day Survivors (AH44 hepatoma; 1,000 mg/kg p.o.): 0/6
Average Survival Time (AH44 hepatoma; 1,000 mg/kg p.o.): 10.8 days
30-day Survivors (sarcoma 180; 50 mg/kg/day i.p.): 0/12
Average Survival Time (sarcoma 180; 50 mg/kg/day i.p.): 25.5 days
Number of Dead Animals (sarcoma 180; 50 mg/kg/day i.p.): 0/12
30-day Survivors (sarcoma 180; 50 mg/kg/day s.c.): 0/12
Average Survival Time (sarcoma 180; 50 mg/kg/day s.c.): 21.9 days
Number of Dead Animals (sarcoma 180; 50 mg/kg/day s.c.): 0/12
30-day Survivors (sarcoma 180; 100 mg/kg/day i.p.): 5/12
Average Survival Time (sarcoma 180; 100 mg/kg/day i.p.): 27.7 days
Number of Dead Animals (sarcoma 180; 100 mg/kg/day i.p.): 0/12
30-day Survivors (sarcoma 180; 100 mg/kg/day s.c.): 0/12
Average Survival Time (sarcoma 180; 100 mg/kg/day s.c.): 23.0 days
Number of Dead Animals (sarcoma 180; 100 mg/kg/day s.c.): 0/12
Average Survival Time (L1210 leukemia [4]; 100 mg/kg/day s.c.): 8.2 days
Life-Prolongation Ratio (%) (L1210 leukemia [4]; 100 mg/kg/day s.c.): 103%
Average Survival Time (L1210 leukemia [4]; 250 mg/kg/day p.o.): 9.4 days
Life-Prolongation Ratio (%) (L1210 leukemia [4]; 250 mg/kg/day p.o.): 115%
Average Survival Time (L1210 leukemia [4]; 250 mg/kg/day s.c.): 9.2 days
Life-Prolongation Ratio (%) (L1210 leukemia [4]; 250 mg/kg/day s.c.): 115%
Average Survival Time (L1210 leukemia [4]; 500 mg/kg/day p.o.): 11.4 days
Life-Prolongation Ratio (%) (L1210 leukemia [4]; 500 mg/kg/day p.o.): 139%
Average Survival Time (L1210 leukemia [4]; 500 mg/kg/day s.c.): 10.8 days
Life-Prolongation Ratio (%) (L1210 leukemia [4]; 500 mg/kg/day s.c.): 135%
Average Survival Time (L1210 leukemia [4]; 1,000 mg/kg/day p.o.): 13.8 days
Life-Prolongation Ratio (%) (L1210 leukemia [4]; 1,000 mg/kg/day p.o.): 168%
effectiveness against L1210 leukemia (L1210 leukemia [4]; oral and subcutaneous administration): effective
